# Source: PubChem BioAssay (NCI)
#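 Cultured in 96-well plates, cells were exposed to test compound for 48 hours across five concentrations. GI50 = concentration required for 50% inhibition of growth. TGI: total growth inhibition.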
# Columns and labels:
# Assay in all cases: NCI anticancer screen, dose series, 48 h
# A498 renal = system: A498 renal
# BT-549 breast = system: BT-549 breast
# CAKI-1 renal = system: CAKI-1 renal
# CCRF-CEM leukemia = system: CCRF-CEM leukemia
# COLO 205 colon = system: COLO 205 colon
# DU-145 prostate = system: DU-145 prostate
# EKVX NSCLC = system: EKVX NSCLC
# HCC-2998 colon = system: HCC-2998 colon
# HL-60(TB) leukemia = system: HL-60(TB) leukemia
# HOP-62 NSCLC = system: HOP-62 NSCLC
# IGROV1 ovarian = system: IGROV1 ovarian
# K-562 leukemia = system: K-562 leukemia
# KM12 colon = system: KM12 colon
# LOX IMVI melanoma = system: LOX IMVI melanoma
# M14 melanoma = system: M14 melanoma
# MALME-3M melanoma = system: MALME-3M melanoma
# MCF7 breast = system: MCF7 breast
# MDA-MB-231 breast = system: MDA-MB-231 breast
# MDA-MB-435 = system: MDA-MB-435
# MOLT-4 leukemia = system: MOLT-4 leukemia
# NCI-H23 lung = system: NCI-H23 lung
# NCI-H460 lung = system: NCI-H460 lung
# NCI-H522 lung = system: NCI-H522 lung
# NCI/ADR-RES ovarian = system: NCI/ADR-RES ovarian
# OVCAR-3 ovarian = system: OVCAR-3 ovarian
# OVCAR-4 ovarian = system: OVCAR-4 ovarian
# OVCAR-5 ovarian = system: OVCAR-5 ovarian
# OVCAR-8 ovarian = system: OVCAR-8 ovarian
# PC-3 prostate = system: PC-3 prostate
# RPMI-8226 leukemia = system: RPMI-8226 leukemia
# SF-539 CNS = system: SF-539 CNS
# SK-MEL-2 melanoma = system: SK-MEL-2 melanoma
# SK-MEL-28 melanoma = system: SK-MEL-28 melanoma
# SK-MEL-5 melanoma = system: SK-MEL-5 melanoma
# SK-OV-3 ovarian = system: SK-OV-3 ovarian
# SN12C renal = system: SN12C renal
# SNB-19 CNS = system: SNB-19 CNS
# SNB-75 CNS = system: SNB-75 CNS
# SW-620 colon = system: SW-620 colon
# T-47D breast = system: T-47D breast
# TK-10 renal = system: TK-10 renal
# UACC-257 melanoma = system: UACC-257 melanoma
# UACC-62 melanoma = system: UACC-62 melanoma
# UO-31 renal = system: UO-31 renal
# 786-0 renal = system: 786-0 renal
# HCT-15 colon = system: HCT-15 colon
# HT29 colon = system: HT29 colon
# SF-295 CNS = system: SF-295 CNS
smiles,measurement,setting,value
COc1cc2c(cc1OCCCN1CCN(CCCOc3cc4c(cc3OC)C(=O)N3CCC[C@H]3C=N4)CC1)C=CC(C)(C)O2,GI50,A498 renal,1.15 µM
same,TGI,A498 renal,2.37 µM
same,GI50,BT-549 breast,0.941 µM
same,TGI,BT-549 breast,2.47 µM
same,GI50,CAKI-1 renal,0.827 µM
same,TGI,CAKI-1 renal,2.12 µM
same,GI50,CCRF-CEM leukemia,0.288 µM
same,GI50,COLO 205 colon,1.21 µM
same,TGI,COLO 205 colon,2.61 µM
same,GI50,DU-145 prostate,0.889 µM
same,TGI,DU-145 prostate,2.1 µM
same,GI50,EKVX NSCLC,1.36 µM
same,TGI,EKVX NSCLC,2.75 µM
same,GI50,HCC-2998 colon,0.683 µM
same,TGI,HCC-2998 colon,2.07 µM
same,GI50,HL-60(TB) leukemia,0.252 µM
same,TGI,HL-60(TB) leukemia,0.738 µM
same,GI50,HOP-62 NSCLC,1.25 µM
same,TGI,HOP-62 NSCLC,2.5 µM
same,GI50,IGROV1 ovarian,0.606 µM
same,TGI,IGROV1 ovarian,> 100 µM
same,GI50,K-562 leukemia,0.32 µM
same,TGI,K-562 leukemia,1.03 µM
same,GI50,KM12 colon,0.904 µM
same,TGI,KM12 colon,2.14 µM
same,GI50,LOX IMVI melanoma,0.755 µM
same,TGI,LOX IMVI melanoma,2.09 µM
same,GI50,M14 melanoma,1.34 µM
same,TGI,M14 melanoma,2.62 µM
same,GI50,MALME-3M melanoma,1.9 µM
same,TGI,MALME-3M melanoma,3.65 µM
same,GI50,MCF7 breast,0.423 µM
same,TGI,MCF7 breast,1.69 µM
same,GI50,MDA-MB-231 breast,1.31 µM
same,TGI,MDA-MB-231 breast,2.58 µM
same,GI50,MDA-MB-435,1.24 µM
same,TGI,MDA-MB-435,2.55 µM
same,GI50,MOLT-4 leukemia,0.249 µM
same,TGI,MOLT-4 leukemia,0.765 µM
same,GI50,NCI-H23 lung,1.53 µM
same,TGI,NCI-H23 lung,3.04 µM
same,GI50,NCI-H460 lung,1.1 µM
same,TGI,NCI-H460 lung,2.32 µM
same,GI50,NCI-H522 lung,1.48 µM
same,TGI,NCI-H522 lung,4.27 µM
same,GI50,NCI/ADR-RES ovarian,2.41 µM
same,TGI,NCI/ADR-RES ovarian,5.31 µM
same,GI50,OVCAR-3 ovarian,1.36 µM
same,TGI,OVCAR-3 ovarian,2.67 µM
same,GI50,OVCAR-4 ovarian,1.56 µM
same,TGI,OVCAR-4 ovarian,3.53 µM
same,GI50,OVCAR-5 ovarian,1.7 µM
same,TGI,OVCAR-5 ovarian,3.18 µM
same,GI50,OVCAR-8 ovarian,1.38 µM
same,TGI,OVCAR-8 ovarian,3.85 µM
same,GI50,PC-3 prostate,0.804 µM
same,TGI,PC-3 prostate,2.09 µM
same,GI50,RPMI-8226 leukemia,0.232 µM
same,TGI,RPMI-8226 leukemia,0.699 µM
same,GI50,SF-539 CNS,1.26 µM
same,TGI,SF-539 CNS,2.51 µM
same,GI50,SK-MEL-2 melanoma,1.58 µM
same,TGI,SK-MEL-2 melanoma,2.97 µM
same,GI50,SK-MEL-28 melanoma,1.51 µM
same,TGI,SK-MEL-28 melanoma,2.83 µM
same,GI50,SK-MEL-5 melanoma,1.27 µM
same,TGI,SK-MEL-5 melanoma,2.53 µM
same,GI50,SK-OV-3 ovarian,1.61 µM
same,TGI,SK-OV-3 ovarian,2.99 µM
same,GI50,SN12C renal,0.584 µM
same,TGI,SN12C renal,1.95 µM
same,GI50,SNB-19 CNS,2.22 µM
same,GI50,SNB-75 CNS,1.26 µM
same,TGI,SNB-75 CNS,2.74 µM
same,GI50,SW-620 colon,0.634 µM
same,TGI,SW-620 colon,1.93 µM
same,GI50,T-47D breast,0.792 µM
same,TGI,T-47D breast,2.43 µM
same,GI50,TK-10 renal,1.46 µM
same,TGI,TK-10 renal,2.87 µM
same,GI50,UACC-257 melanoma,1.82 µM
same,TGI,UACC-257 melanoma,3.52 µM
same,GI50,UACC-62 melanoma,1.42 µM
same,TGI,UACC-62 melanoma,2.73 µM
same,GI50,UO-31 renal,1.51 µM
same,TGI,UO-31 renal,3.49 µM
CNCc1cccc2c1OCCOCCN(C)C(=O)CN(C)S(=O)(=O)c1ccc(cc1)-c1cnc(N)c(n1)C(=O)N2,GI50,786-0 renal,0.669 µM
same,TGI,786-0 renal,2.09 µM
same,GI50,A498 renal,1.82 µM
same,TGI,A498 renal,7.34 µM
same,GI50,CAKI-1 renal,2.35 µM
same,TGI,CAKI-1 renal,> 100 µM
same,GI50,HCT-15 colon,6.97 µM
same,TGI,HCT-15 colon,> 100 µM
same,GI50,HT29 colon,2.85 µM
same,TGI,HT29 colon,> 100 µM
same,GI50,MCF7 breast,0.0853 µM
same,TGI,MCF7 breast,> 100 µM
same,GI50,NCI-H23 lung,0.299 µM
same,TGI,NCI-H23 lung,3.47 µM
same,GI50,NCI/ADR-RES ovarian,> 100 µM
same,TGI,NCI/ADR-RES ovarian,> 100 µM
same,GI50,SF-295 CNS,1.77 µM
same,TGI,SF-295 CNS,> 100 µM
same,GI50,SK-MEL-5 melanoma,6.63 µM
same,TGI,SK-MEL-5 melanoma,> 100 µM
same,GI50,TK-10 renal,2.71 µM
same,TGI,TK-10 renal,> 100 µM
same,GI50,UO-31 renal,> 100 µM
same,TGI,UO-31 renal,> 100 µM
